Experimental data reported in paper PMC6487453 (ACS Central Science, 2019).

Molecular target: T1, LTA4H (Homo sapiens, UniProt P09960)
T1 sequence (P09960 2-611): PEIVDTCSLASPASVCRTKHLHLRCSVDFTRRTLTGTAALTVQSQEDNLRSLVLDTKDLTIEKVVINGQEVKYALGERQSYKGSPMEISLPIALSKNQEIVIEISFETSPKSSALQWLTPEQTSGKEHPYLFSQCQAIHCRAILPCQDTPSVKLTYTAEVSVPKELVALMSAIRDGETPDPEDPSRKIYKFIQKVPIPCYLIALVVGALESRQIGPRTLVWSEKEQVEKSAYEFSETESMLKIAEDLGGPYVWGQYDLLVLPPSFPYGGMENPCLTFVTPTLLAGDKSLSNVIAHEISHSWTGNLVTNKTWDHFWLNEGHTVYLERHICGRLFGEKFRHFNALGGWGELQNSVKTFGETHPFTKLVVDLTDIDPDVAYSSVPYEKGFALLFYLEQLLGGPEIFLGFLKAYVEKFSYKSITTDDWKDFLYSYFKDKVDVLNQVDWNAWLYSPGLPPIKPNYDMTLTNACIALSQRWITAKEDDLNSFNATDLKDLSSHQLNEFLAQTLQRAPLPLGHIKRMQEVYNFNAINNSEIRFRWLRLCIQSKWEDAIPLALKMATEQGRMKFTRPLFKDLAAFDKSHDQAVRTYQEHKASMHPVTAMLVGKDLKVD
Experiment: colorimetric peptidase assay, 4-nitroaniline absorption at […] nm
Type: biochemical
Details: 50 mM HEPES pH 7.5, 100 mM KCl

Row | SMILES | colorimetric peptidase assay, 4-nitroaniline absorption at 410 nm (1 mM substrate) | colorimetric peptidase assay, 4-nitroaniline absorption at 410 nm (inhibitor, L-alanine 4-nitroanilide 1 mM, 460 nm light)
1 | C[C@H](N)C(=O)Nc1ccc([N+](=O)[O-])cc1 [L-alanine 4-nitroanilide] | L-alanine 4-nitroanilide which is converted to the strongly absorbing 4-nitroaniline | 
2 | c1ccc(/N=N/c2ccc(OCCN3CCCC3)cc2)cc1 [trans-LTA4H-Photoswitch] |  | trans-LTA4H-Photoswitch was a more potent inhibitor of LTA4H peptidase than the cis-isomer
